Assay results taken from patent US20230220021A1, “CYCLIC PEPTIDE INHIBITORS OF PSD-95 AND USES THEREOF” (University of Copenhagen, priority 2020, published 2023).
Read-outs that look alike come from different tables or passages of the source. Blank lines part the entries; values can stand above or below the compound they belong to. Where a SMILES comes first, the peptide text is derived from it. Where no end group is shown, it is not given here. [ ]: non-standard residue; d: D form.

Experiments:
PSD-95-PDZ2 [1] = target: T1, PSD-95-PDZ2 (Homo sapiens, UniProt P78352); test: Isothermal titration calorimetry (ITC); assay type: binding; conditions: for fold improved binding affinity compared to the wild-type peptide: ITC Kd
T1 construct: 7xHis (N); made in house; host or cells: Escherichia coli B21 pLys (for the mutants, 'as previously described')
Protocol: Isothermal titration calorimetry (ITC). The ITC assays were performed in NaPi 50 nM, 50 nM NaCl, pH 7.2 buffer filtered with a Corning® bottle-top vacuum filter system of a pore size of 0.22 μM, that was used to dissolve the peptides. Proteins were dialyzed against this buffer using Amicon® Ultra-15 centrifugal filter units, with a MWCO 3000 Da.
This assay was performed on an ITC200. The instrument differential power (DP) was set to 10 and the syringe rotating speed to 600 RPM. The assay setup consisted of introducing the protein inside the cell and the peptide (titrant) on the syringe. Calorimetry was performed at 25° C. Each analysis was performed in triplicates. Furthermore, several runs of peptide into buffer were performed in order to remove injection residual heat. Runs were analyzed with Origin 7.0 software (OriginLab).

PSD-95-PDZ2 [2] = target: T1, PSD-95-PDZ2; test: Fluorescence polarization (FP) competition assay against cyclic nNOS TAMRA probe; assay type: binding; conditions: for Ki: FP competition, cyclic nNOS TAMRA probe, mean of triplicates, N.B. = not binding, read-out: Ki; for Relative Ki (Ki mut/Ki WT): FP inhibition constant normalized to WT value
Protocol: Fluorescence polarization (FP). FP assays were performed in a 384-well plate format. Fluorescence polarization was measured using a Safire 2 plate reader. The instrument Z-factor was optimized for each assay. The G-factor was calibrated to an initial milli polarization value of 20. The wavelength for the cyclic nNOS β-hairpin TAMRA probe was: ex: 530 nm and em: 580 nm. Every measurement was performed in NaPI 50 mM, 50 mM NaCl and 1% BSA at pH 7.2, 25° C. […] The curves were done in triplicates. Then, the polarization was fitted into a one-site binding model using Prism software 8.0 (GraphPad), from which the Kd can be measured. […] The mili polarization (mP) values were plotted as a function of peptide concentration and fitted to a sigmoidal dose-response curve using Prism software 8.0 (GraphPad). The Ki values were calculated according to Nikolovska-Coleska Z. et al.^40-41

PSD-95-PDZ2 [3] = target: T2, PSD-95-PDZ2 (Homo sapiens, UniProt P78352, V178C); test: SPOT peptide array screening with TAMRA labelled PSD-95-PDZ2; assay type: binding; conditions: for Normalized SPOT fluorescence (Mut/WT): SPOT array, TAMRA labelled PSD-95-PDZ2-V178C, normalized to WT
T2 construct: screened with the TAMRA labelled PSD-95-PDZ2-V178C domain; 7xHis (N); made in house
Method in brief: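 First, arrays were blocked 1 h and scanned to record background. Next, 50 nM labelled PDZ2-V178C in PBS pH 7.2 with 0.5% BSA bound for 1 h protected from light. Finally, after washes, 532 nm fluorescence was measured and background-corrected.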

plasmin = plasmin (Homo sapiens, UniProt P00747); test: In vitro plasmin stability; assay type: in vitro ADME; conditions: 100 μM ligand, PBS with plasmin (10 μg/mL), 37° C., 0 to 360 minutes, mean n=3
Sequence of plasmin (P00747 581-810 limits assumed, species assumed): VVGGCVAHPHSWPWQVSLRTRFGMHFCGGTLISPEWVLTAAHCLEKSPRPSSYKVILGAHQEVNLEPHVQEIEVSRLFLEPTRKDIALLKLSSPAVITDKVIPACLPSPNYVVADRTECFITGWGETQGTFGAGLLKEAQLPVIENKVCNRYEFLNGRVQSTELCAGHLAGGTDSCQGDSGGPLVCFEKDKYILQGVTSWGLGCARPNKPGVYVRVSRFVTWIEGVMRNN
Sequence of plasmin (P00747 97-580 partner limits assumed, species assumed): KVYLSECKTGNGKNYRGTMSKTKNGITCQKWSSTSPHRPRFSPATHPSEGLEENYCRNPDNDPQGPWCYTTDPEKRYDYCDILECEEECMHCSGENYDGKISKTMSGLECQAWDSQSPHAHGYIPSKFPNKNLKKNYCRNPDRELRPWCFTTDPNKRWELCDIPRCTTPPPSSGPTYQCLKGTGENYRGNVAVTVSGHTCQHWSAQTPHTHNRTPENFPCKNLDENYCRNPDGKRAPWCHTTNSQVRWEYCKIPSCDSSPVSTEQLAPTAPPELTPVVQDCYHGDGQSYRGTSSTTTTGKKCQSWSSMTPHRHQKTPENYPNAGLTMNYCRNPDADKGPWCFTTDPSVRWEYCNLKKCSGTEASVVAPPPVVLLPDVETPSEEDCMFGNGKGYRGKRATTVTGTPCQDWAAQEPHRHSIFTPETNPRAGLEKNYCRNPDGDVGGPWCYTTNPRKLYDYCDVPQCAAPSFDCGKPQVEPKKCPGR
Protocol: The in vitro plasmin stability of peptides with SEQ ID NOs: 12, 68, 99 and 163 were determined by incubating 100 μM of ligand in phosphate buffered saline (PBS) supplemented with plasmin (10 μg/mL) at 37° C. for 0 to 360 minutes. At selected time points during the incubation, the ligands were extracted from 80 μL of assay matrix by treatment with 80 μL of 50% acetonitrile (ACN). The samples were filtered and analysed by UPLC to determine the amount of ligand remaining. LC-MS analysis was performed to confirm ligand integrity and identify cleavage sites.

[4] = plasmin (10 μg/mL) in phosphate buffered saline

Kd (PSD-95-PDZ2 [1]; 25° C., tested up to 100 μM, read-out: affinity (Kd) by ITC): 2200 ± 300 nM
Compound: CC[C@H](C)[C@@H]1NC(=O)[C@H]([C@@H](C)O)NC(=O)[C@H](CCCCN)NC(=O)[C@@H]2CCCN2C(=O)[C@H]([C@@H](C)O)NC(=O)CNC(=O)[C@H](CC(=O)O)NC(=O)CNC(=O)[C@H]([C@@H](C)O)NC(=O)[C@H](Cc2ccccc2)NC(=O)[C@H]([C@@H](C)O)NC(=O)[C@H]([C@@H](C)O)NC(=O)[C@H](CCC(=O)O)NC(=O)[C@H](CC(C)C)NC(=O)[C@H](Cc2c[nH]cn2)NC(=O)[C@H]([C@@H](C)O)NC(=O)[C@H](CCC(N)=O)NC(=O)CNC(=O)[C@H]2CCCN2C(=O)[C@H](CCC(N)=O)NC(=O)[C@H]([C@@H](C)O)NC(=O)[C@H](C(C)C)NC(=O)[C@H](CCCNC(=N)N)NC1=O [SEQ ID NO: 12]

fold improved binding affinity compared to the wild-type peptide (PSD-95-PDZ2 [1]): 16 fold
Compound: CC[C@H](C)[C@@H]1NC(=O)[C@H]([C@@H](C)O)NC(=O)[C@H](CCCCN)NC(=O)[C@@H]2CCCN2C(=O)[C@H](CCC(=O)O)NC(=O)CNC(=O)[C@H](CC(=O)O)NC(=O)CNC(=O)[C@H](Cc2c[nH]c3ccccc23)NC(=O)[C@H](Cc2ccccc2)NC(=O)[C@H]([C@@H](C)O)NC(=O)[C@H]([C@@H](C)O)NC(=O)[C@H](CCC(=O)O)NC(=O)[C@H](CC(C)C)NC(=O)[C@H](Cc2c[nH]cn2)NC(=O)[C@H]([C@@H](C)O)NC(=O)[C@H](CCC(N)=O)NC(=O)CNC(=O)[C@H]2CCCN2C(=O)[C@H](CCC(N)=O)NC(=O)[C@H]([C@@H](C)O)NC(=O)[C@H](C(C)C)NC(=O)[C@H](CCCNC(=N)N)NC1=O [SEQ ID NO: 14] (cyclo(THLETTFWGDGEPKTIRVTQ[dP]GQ))

fold improved binding affinity compared to the wild-type peptide (PSD-95-PDZ2 [1]): 75 fold
Compound: CC[C@H](C)[C@@H]1NC(=O)[C@H]([C@@H](C)O)NC(=O)[C@H](CCCCN)NC(=O)[C@@H]2CCCN2C(=O)[C@H](CCC(=O)O)NC(=O)CNC(=O)[C@H](CC(=O)O)NC(=O)CNC(=O)[C@H](Cc2c[nH]c3ccccc23)NC(=O)[C@H](Cc2ccccc2)NC(=O)[C@H]([C@@H](C)O)NC(=O)[C@H]([C@@H](C)O)NC(=O)[C@H](CCC(=O)O)NC(=O)[C@H](CC(C)C)NC(=O)[C@H](Cc2cncn2C)NC(=O)[C@H]([C@@H](C)O)NC(=O)[C@H](CCC(N)=O)NC(=O)CNC(=O)[C@H]2CCCN2C(=O)[C@H](CCC(N)=O)NC(=O)[C@H]([C@@H](C)O)NC(=O)[C@H](C(C)C)NC(=O)[C@H](CCCNC(=N)N)NC1=O [SEQ ID NO: 16]

Ki (PSD-95-PDZ2 [2]): 110 nM
ΔH (PSD-95-PDZ2 [1]; ITC, 25° C.): -7.208 ± 0.8381 kcal/mol
−ΔS*T (PSD-95-PDZ2 [1]; ITC, 25° C.): -2.1487 ± 0.759 kcal/mol
Kd (PSD-95-PDZ2 [1]; ITC, 25° C., read-out: Kd): 139 ± 18.2 nM
Average (fluorescence raw data) (PSD-95-PDZ2 [3]; non-proteogenic AA scan, Hit1(T112W T116E) peptide scaffold, SPOT array incubated with TAMRA-labelled PSD-95-PDZ2, average of Pep. 1-3): 10.70 10^6
Fluor. Pep. 1 (fluorescence raw data) (PSD-95-PDZ2 [3]; non-proteogenic AA scan, Hit1(T112W T116E) peptide scaffold, SPOT array incubated with TAMRA-labelled PSD-95-PDZ2, replicate peptide 1): 9.88 10^6
Fluor. Pep. 2 (fluorescence raw data) (PSD-95-PDZ2 [3]; non-proteogenic AA scan, Hit1(T112W T116E) peptide scaffold, SPOT array incubated with TAMRA-labelled PSD-95-PDZ2, replicate peptide 2): 12.86 10^6
Fluor. Pep. 3 (fluorescence raw data) (PSD-95-PDZ2 [3]; non-proteogenic AA scan, Hit1(T112W T116E) peptide scaffold, SPOT array incubated with TAMRA-labelled PSD-95-PDZ2, replicate peptide 3): 9.36 10^6
Compound: CC[C@H](C)[C@@H]1NC(=O)[C@H]([C@@H](C)O)NC(=O)[C@H](CCCCN)NC(=O)[C@@H]2CCCN2C(=O)[C@H](CCC(=O)O)NC(=O)CNC(=O)[C@H](CC(=O)O)NC(=O)CNC(=O)[C@H](Cc2c[nH]c3ccccc23)NC(=O)[C@H](Cc2ccccc2)NC(=O)[C@H]([C@@H](C)O)NC(=O)[C@H]([C@@H](C)O)NC(=O)[C@H](CCC(=O)O)NC(=O)[C@H](CC(C)C)NC(=O)[C@H](Cc2c[nH]cn2)NC(=O)[C@H]([C@@H](C)O)NC(=O)[C@H](CCC(N)=O)NC(=O)CNC(=O)[C@H]2CCCN2C(=O)[C@H](CCC(N)=O)NC(=O)[C@H]([C@@H](C)O)NC(=O)[C@H](C(C)C)NC(=O)[C@H](CCCNC(=N)N)NC1=O [compound 14] (cyclo(THLETTFWGDGEPKTIRVTQ[dP]GQ))

ΔH (PSD-95-PDZ2 [1]; ITC, 25° C.): -6.6378 ± 0.1229 kcal/mol
−ΔS*T (PSD-95-PDZ2 [1]; ITC, 25° C.): -3.6598 ± 0.239 kcal/mol
Compound: CC[C@H](C)[C@@H]1NC(=O)[C@H]([C@@H](C)O)NC(=O)[C@H](CCCCN)NC(=O)[C@@H]2CCCN2C(=O)[C@H](CCC(=O)O)NC(=O)CNC(=O)[C@H](CC(=O)O)NC(=O)CNC(=O)[C@H](Cc2c[nH]c3ccccc23)NC(=O)[C@H](Cc2ccccc2)NC(=O)[C@H]([C@@H](C)O)NC(=O)[C@H]([C@@H](C)O)NC(=O)[C@H](CCC(=O)O)NC(=O)[C@H](CC(C)C)NC(=O)[C@H](Cc2cncn2C)NC(=O)[C@H]([C@@H](C)O)NC(=O)[C@H](CCC(N)=O)NC(=O)CNC(=O)[C@H]2CCCN2C(=O)[C@H](CCC(N)=O)NC(=O)[C@H]([C@@H](C)O)NC(=O)[C@H](C(C)C)NC(=O)[C@H](CCCNC(=N)N)NC1=O [compound 16]

Ki (PSD-95-PDZ2 [2]): 1430 nM
Relative Ki (Ki mut/Ki WT) (PSD-95-PDZ2 [2]): 0.95
Normalized SPOT fluorescence (Mut/WT) (PSD-95-PDZ2 [3]): 0.39
half-life at 100 μM (plasmin; [4]): 6 h
Compound: CC[C@H](C)[C@@H]1NC(=O)[C@H]([C@@H](C)O)NC(=O)[C@H](C)NC(=O)[C@@H]2CCCN2C(=O)[C@H]([C@@H](C)O)NC(=O)CNC(=O)[C@H](CC(=O)O)NC(=O)CNC(=O)[C@H]([C@@H](C)O)NC(=O)[C@H](Cc2ccccc2)NC(=O)[C@H]([C@@H](C)O)NC(=O)[C@H]([C@@H](C)O)NC(=O)[C@H](CCC(=O)O)NC(=O)[C@H](CC(C)C)NC(=O)[C@H](Cc2c[nH]cn2)NC(=O)[C@H]([C@@H](C)O)NC(=O)[C@H](CCC(N)=O)NC(=O)CNC(=O)[C@H]2CCCN2C(=O)[C@H](CCC(N)=O)NC(=O)[C@H]([C@@H](C)O)NC(=O)[C@H](C(C)C)NC(=O)[C@H](CCCNC(=N)N)NC1=O [compound 68] (cyclo(THLETTFTGDGTPATIRVTQ[dP]GQ))

Relative Ki (Ki mut/Ki WT) (PSD-95-PDZ2 [2]): 1.01
Normalized SPOT fluorescence (Mut/WT) (PSD-95-PDZ2 [3]): 0.42
Compound: CC[C@H](C)[C@@H]1NC(=O)[C@H]([C@@H](C)O)NC(=O)[C@H](CCCCN)NC(=O)[C@@H]2CCCN2C(=O)[C@H]([C@@H](C)O)NC(=O)CNC(=O)[C@H](CC(=O)O)NC(=O)CNC(=O)[C@H]([C@@H](C)O)NC(=O)[C@H](Cc2ccccc2)NC(=O)[C@H]([C@@H](C)O)NC(=O)[C@H]([C@@H](C)O)NC(=O)[C@H](CCC(=O)O)NC(=O)[C@H](CC(C)C)NC(=O)[C@H](Cc2c[nH]cn2)NC(=O)[C@H]([C@@H](C)O)NC(=O)[C@H](CCC(N)=O)NC(=O)CNC(=O)[C@H]2CCCN2C(=O)[C@H](C)NC(=O)[C@H]([C@@H](C)O)NC(=O)[C@H](C(C)C)NC(=O)[C@H](CCCNC(=N)N)NC1=O [compound 74] (cyclo(THLETTFTGDGTPKTIRVTA[dP]GQ))

Ki (PSD-95-PDZ2 [2]): 990 nM
half-life at 100 μM (plasmin; [4]): 2.83 h
Compound: CC[C@H](C)[C@@H]1NC(=O)[C@H]([C@@H](C)O)NC(=O)[C@H](CCCCN)NC(=O)[C@@H]2CCCN2C(=O)[C@H]([C@@H](C)O)NC(=O)CNC(=O)[C@H](CC(=O)O)NC(=O)CNC(=O)[C@H]([C@@H](C)O)NC(=O)[C@H](Cc2ccccc2)NC(=O)[C@H]([C@@H](C)O)NC(=O)[C@H]([C@@H](C)O)NC(=O)[C@H](CCC(=O)O)NC(=O)[C@H](CC(C)C)NC(=O)[C@H](Cc2c[nH]cn2)NC(=O)[C@H]([C@@H](C)O)NC(=O)[C@H](CCC(N)=O)NC(=O)CNC(=O)[C@H]2CCCN2C(=O)[C@H](CCC(N)=O)NC(=O)[C@H]([C@@H](C)O)NC(=O)[C@H](C(C)C)NC(=O)[C@H](CCCNC(=N)N)N(C)C1=O [compound 99]

half-life at 100 μM (plasmin; plasmin (isolated protease, 10 μg/mL) in PBS): 1.4 h
Compound: CC[C@H](C)[C@@H]1NC(=O)[C@H]([C@@H](C)O)NC(=O)[C@H](CCCCN)NC(=O)[C@@H]2CCCN2C(=O)[C@H]([C@@H](C)O)NC(=O)CNC(=O)[C@H](CC(=O)O)NC(=O)CNC(=O)[C@H](Cc2c[nH]c3ccccc23)NC(=O)[C@H](Cc2ccccc2)NC(=O)[C@H]([C@@H](C)O)NC(=O)[C@H]([C@@H](C)O)NC(=O)[C@H](CCC(=O)O)NC(=O)[C@H](CC(C)C)NC(=O)[C@H](Cc2c[nH]cn2)NC(=O)[C@H]([C@@H](C)O)NC(=O)[C@H](CCC(N)=O)NC(=O)CNC(=O)[C@H]2CCCN2C(=O)[C@H](CCC(N)=O)NC(=O)[C@H]([C@@H](C)O)NC(=O)[C@H](C(C)C)NC(=O)[C@H](CCCNC(=N)N)NC1=O [compound 163] (cyclo(THLETTFWGDGTPKTIRVTQ[dP]GQ))

affinity (Kd) by ITC (PSD-95-PDZ2 [1]; 25° C., tested up to 100 μM): did not show binding
Compound: THLETTFTGDGTPKTIRVTQpGQE (THLETTFTGDGTPKTIRVTQ[dP]GQE) [SEQ ID NO: 137]
